The record followed here is US20240199587A1, “HETEROCYCLIC COMPOUNDS” (Hoffmann-La Roche Inc., priority 2021, published 2024).

Structures are written as SMILES.

The assay deals with T1, MAGL (Homo sapiens, UniProt Q99685).
T1 sequence (Q99685 1-303): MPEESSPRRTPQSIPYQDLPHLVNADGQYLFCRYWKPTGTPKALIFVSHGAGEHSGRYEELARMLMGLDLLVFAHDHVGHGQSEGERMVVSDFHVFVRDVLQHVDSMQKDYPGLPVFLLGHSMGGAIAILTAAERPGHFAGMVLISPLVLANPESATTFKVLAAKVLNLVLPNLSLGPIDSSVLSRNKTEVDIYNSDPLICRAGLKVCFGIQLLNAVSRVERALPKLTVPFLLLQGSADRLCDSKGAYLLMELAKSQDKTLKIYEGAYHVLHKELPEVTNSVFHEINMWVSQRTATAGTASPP
In words: 2-AG assay (MAGL inhibitory activity, hydrolysis of 2-arachidonoylglycerol to arachidonic acid followed by mass spectrometry). Conditions: 8 μM 2-arachidonoylglycerol, 15 min pre-incubation, 30 min incubation at RT, RapidFire MS readout. In kind it is biochemical. Put shortly: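 Human MAGL ([…] final) pre-incubated 15 min at RT with compound in 50 mM TRIS, 1 mM EDTA, 0.01% Tween-20, 2.5% DMSO; 8 μM 2-AG then added for 30 min at RT. Acetonitrile quench with d8-arachidonic acid; arachidonic acid measured by RapidFire SPE–MS/MS, activity from arachidonic acid/d8 ratio.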
By IC50 is commonly meant the concentration needed to halve the response being measured. A higher IC50 goes with weaker potency. `O=C(N1CC2(CC(c3ccc(C(F)(F)F)nc3)C2)C1)N1CC2(CC(c3ccc(C(F)(F)F)nc3)C2)C1` [Example 522, bis[6-[6-(trifluoromethyl)-3-pyridyl]-2-azaspiro[3.3]heptan-2-yl]methanone] returned an IC50 of 849 nM.
The same measure for `O=C(N1CC(c2ccc(N3CC(C(F)(F)F)C3)nc2)C1)N1CC2(CC(c3ccc(C(F)(F)F)nc3)C2)C1` [Example 523, [3-[6-[3-(trifluoromethyl)azetidin-1-yl]-3-pyridyl]azetidin-1-yl]-[6-[6-(trifluoromethyl)-3-pyridyl]-2-azaspiro[3.3]heptan-2-yl]methanone]: 393 nM.
`O=C(N1CC2(CC(Cc3ccc(C(F)(F)F)nc3)C2)C1)N1CC2(CC(c3ccc(C(F)(F)F)nc3)C2)C1` [Example 524, [6-[6-(trifluoromethyl)-3-pyridyl]-2-azaspiro[3.3]heptan-2-yl]-[6-[[6-(trifluoromethyl)-3-pyridyl]methyl]-2-azaspiro[3.3]heptan-2-yl]methanone] registered a half-maximal inhibitory concentration (IC50) of 74.3 nM.
The same measure for `O=C(N1CC2(CC(Oc3ccc(C(F)(F)F)nc3)C2)C1)N1CC2(CC(c3ccc(C(F)(F)F)nc3)C2)C1` [Example 525, [6-[6-(trifluoromethyl)-3-pyridyl]-2-azaspiro[3.3]heptan-2-yl]-[6-[[6-(trifluoromethyl)-3-pyridyl]oxy]-2-azaspiro[3.3]heptan-2-yl]methanone]: 698 nM; for `O=C(N1CC2(CC(c3ccc(C(F)(F)F)nc3)C2)C1)N1CC2(CN(Cc3ccc(S(=O)(=O)C(F)(F)F)cc3)C2)C1` [Example 526, [6-[6-(trifluoromethyl)-3-pyridyl]-2-azaspiro[3.3]heptan-2-yl]-[6-[[4-(trifluoromethylsulfonyl)phenyl]methyl]-2,6-diazaspiro[3.3]heptan-2-yl]methanone]: 354 nM.
For the compound `O=C(N1CC(c2ccc(NCC3(C(F)(F)F)CC3)nc2)C1)N1CC2(CC(c3ccc(C(F)(F)F)nc3)C2)C1` [Example 527], the half-maximal inhibitory concentration (IC50) worked out at 50.9 nM.
To `O=C(N1CC(Oc2ccc(C(F)(F)F)c(C3CC3)c2)C1)N1CC2(CC(c3ccc(C(F)(F)F)nc3)C2)C1` [Example 528] belongs 245 nM; to `CS(=O)(=O)c1cccc(CC2CC3(C2)CN(C(=O)N2CC4(CC(c5ccc(C(F)(F)F)nc5)C4)C2)C3)c1` [Example 529, [6-[(3-methylsulfonylphenyl)methyl]-2-azaspiro[3.3]heptan-2-yl]-[6-[6-(trifluoromethyl)-3-pyridyl]-2-azaspiro[3.3]heptan-2-yl]methanone], 189 nM; to `CS(=O)(=O)c1ccc(CC2CC3(C2)CN(C(=O)N2CC4(CC(c5ccc(C(F)(F)F)nc5)C4)C2)C3)cc1` [Example 530, [6-[(4-methylsulfonylphenyl)methyl]-2-azaspiro[3.3]heptan-2-yl]-[6-[6-(trifluoromethyl)-3-pyridyl]-2-azaspiro[3.3]heptan-2-yl]methanone], 350 nM.
To `O=C(N1CC(NCc2ccc(C(F)(F)F)cc2Cl)C1)N1CC2(CC(c3ccc(C(F)(F)F)nc3)C2)C1` [Example 531] belongs 1300 nM; to `CS(=O)(=O)c1ccc(CC2CC3(C2)CN(C(=O)N2CC4(CC(c5ccc(C(F)(F)F)nc5)C4)C2)C3)cc1C(F)(F)F` [Example 532, [6-[[4-methylsulfonyl-3-(trifluoromethyl)phenyl]methyl]-2-azaspiro[3.3]heptan-2-yl]-[6-[6-(trifluoromethyl)-3-pyridyl]-2-azaspiro[3.3]heptan-2-yl]methanone], 131 nM.
To `O=C(N1CC(OCc2ccc(F)cc2Cl)C1)N1CC2(CC(c3ccc(C(F)(F)F)nc3)C2)C1` [Example 533, [3-[(2-chloro-4-fluoro-phenyl)methoxy]azetidin-1-yl]-[6-[6-(trifluoromethyl)-3-pyridyl]-2-azaspiro[3.3]heptan-2-yl]methanone] belongs 813 nM.
